# Experimental data from PubChem BioAssay AID1259407 (Chemical Carcinogenesis Research Information System (CCRIS), 2018).
# Activity calls are given as the source filed them. How the calls were made is not given here.
# Test system: CCRIS mutagenicity, Ames/micronucleus/aberration tests
# Assay: CCRIS mutagenicity studies
# [1] = Test System: AMES SALMONELLA TYPHIMURIUM, Strain/Indicator: TA98, Metabolic Activation: NONE, Method: PREINCUBATION
# [2] = Test System: AMES SALMONELLA TYPHIMURIUM, Strain/Indicator: TA100, Metabolic Activation: NONE, Method: PREINCUBATION
# [3] = Test System: AMES SALMONELLA TYPHIMURIUM, Strain/Indicator: TA1535, Metabolic Activation: NONE, Method: PREINCUBATION
# [4] = Test System: AMES SALMONELLA TYPHIMURIUM, Strain/Indicator: TA98, Metabolic Activation: NONE, Method: STANDARD PLATE
# [5] = Test System: AMES SALMONELLA TYPHIMURIUM, Strain/Indicator: TA100, Metabolic Activation: NONE, Method: STANDARD PLATE
# [6] = Test System: AMES SALMONELLA TYPHIMURIUM, Strain/Indicator: TA1537, Metabolic Activation: NONE, Method: PREINCUBATION
compound,measurement,setting,value
CCc1ccccc1O,mutagenic call,"Test System: AMES SALMONELLA TYPHIMURIUM, Strain/Indicator: TA97, Metabolic Activation: HAMSTER, LIVER, S-9, AROCLOR 1254 (10 OR 30%), Method: PREINCUBATION",inactive; negative
same,mutagenic call,"Test System: AMES SALMONELLA TYPHIMURIUM, Strain/Indicator: TA97, Metabolic Activation: NONE, Method: PREINCUBATION",inactive; negative
same,mutagenic call,"Test System: AMES SALMONELLA TYPHIMURIUM, Strain/Indicator: TA97, Metabolic Activation: RAT, LIVER, S-9, AROCLOR 1254 (10 OR 30%), Method: PREINCUBATION",inactive; negative
same,mutagenic call,"Test System: AMES SALMONELLA TYPHIMURIUM, Strain/Indicator: TA98, Metabolic Activation: HAMSTER, LIVER, S-9, AROCLOR 1254 (10 OR 30%), Method: PREINCUBATION",inactive; negative
same,mutagenic call,[1],inactive; negative
same,mutagenic call,"Test System: AMES SALMONELLA TYPHIMURIUM, Strain/Indicator: TA98, Metabolic Activation: RAT, LIVER, S-9, AROCLOR 1254 (10 OR 30%), Method: PREINCUBATION",inactive; negative
same,mutagenic call,"Test System: AMES SALMONELLA TYPHIMURIUM, Strain/Indicator: TA100, Metabolic Activation: HAMSTER, LIVER, S-9, AROCLOR 1254 (10 OR 30%), Method: PREINCUBATION",inactive; negative
same,mutagenic call,[2],inactive; negative
same,mutagenic call,"Test System: AMES SALMONELLA TYPHIMURIUM, Strain/Indicator: TA100, Metabolic Activation: RAT, LIVER, S-9, AROCLOR 1254 (10 OR 30%), Method: PREINCUBATION",inactive; negative
same,mutagenic call,"Test System: AMES SALMONELLA TYPHIMURIUM, Strain/Indicator: TA1535, Metabolic Activation: HAMSTER, LIVER, S-9, AROCLOR 1254 (10 OR 30%), Method: PREINCUBATION",inactive; negative
same,mutagenic call,[3],inactive; negative
same,mutagenic call,"Test System: AMES SALMONELLA TYPHIMURIUM, Strain/Indicator: TA1535, Metabolic Activation: RAT, LIVER, S-9, AROCLOR 1254 (10 OR 30%), Method: PREINCUBATION",inactive; negative
COC(=O)c1ccc([N+](=O)[O-])c2c(NCCCN(C)C)c3ccccc3nc12,mutagenic call,[4],active; positive
same,mutagenic call,[5],active; positive
CSCNc1ccccc1,mutagenic call,"Test System: AMES SALMONELLA TYPHIMURIUM, Strain/Indicator: TA100, Metabolic Activation: NONE, Method: SPOT TEST",active; positive
same,mutagenic call,"Test System: AMES SALMONELLA TYPHIMURIUM, Strain/Indicator: TA100, Metabolic Activation: RAT, LIVER, S-9, AROCLOR 1254, Method: SPOT TEST",active; positive
same,mutagenic call,"Test System: AMES SALMONELLA TYPHIMURIUM, Strain/Indicator: TA102, Metabolic Activation: NONE, Method: SPOT TEST",active; positive
same,mutagenic call,"Test System: AMES SALMONELLA TYPHIMURIUM, Strain/Indicator: TA102, Metabolic Activation: RAT, LIVER, S-9, AROCLOR 1254, Method: SPOT TEST",active; positive
O[C@H]1C=Cc2ccc3nc4ccc5ccccc5c4cc3c2[C@@H]1O,mutagenic call,"Test System: AMES SALMONELLA TYPHIMURIUM, Strain/Indicator: TA98, Metabolic Activation: GUINEA PIG, LIVER, S-9, 3-METHYLCHOLANTHRENE, Method: STANDARD PLATE",active; positive
same,mutagenic call,"Test System: AMES SALMONELLA TYPHIMURIUM, Strain/Indicator: TA100, Metabolic Activation: GUINEA PIG, LIVER, S-9, 3-METHYLCHOLANTHRENE, Method: STANDARD PLATE",active; positive
same,mutagenic call,"Test System: CHINESE HAMSTER V-79, Strain/Indicator: V-79/6-THIOGUANINE, Metabolic Activation: GUINEA PIG, LIVER, S-9, 3-METHYLCHOLANTHRENE",active; positive
N#CC1=Cc2cccc3cccc1c23,mutagenic call,[4],inactive; negative
same,mutagenic call,"Test System: AMES SALMONELLA TYPHIMURIUM, Strain/Indicator: TA98, Metabolic Activation: RAT, LIVER, S-9, AROCLOR 1254, Method: STANDARD PLATE",inactive; negative
same,mutagenic call,[5],active; positive
same,mutagenic call,"Test System: AMES SALMONELLA TYPHIMURIUM, Strain/Indicator: TA100, Metabolic Activation: RAT, LIVER, S-9, AROCLOR 1254, Method: STANDARD PLATE",active; positive
O=C1OC(=O)c2c(Cl)c(Cl)c(Cl)c(Cl)c21,mutagenic call,"End Point: IN VITRO CHROMOSOMAL ABERRATIONS, Test System: CHINESE HAMSTER OVARY CELLS, Metabolic Activation: NONE",inactive; negative
same,mutagenic call,"End Point: IN VITRO CHROMOSOMAL ABERRATIONS, Test System: CHINESE HAMSTER OVARY CELLS, Metabolic Activation: RAT, LIVER, S-9, AROCLOR 1254",inactive; negative
same,mutagenic call,"Test System: AMES SALMONELLA TYPHIMURIUM, Strain/Indicator: TA98, Metabolic Activation: HAMSTER, LIVER, S-9, AROCLOR 1254 (10%), Method: PREINCUBATION",inactive; negative
same,mutagenic call,[1],inactive; negative
same,mutagenic call,"Test System: AMES SALMONELLA TYPHIMURIUM, Strain/Indicator: TA98, Metabolic Activation: RAT, LIVER, S-9, AROCLOR 1254 (10%), Method: PREINCUBATION",inactive; negative
same,mutagenic call,"Test System: AMES SALMONELLA TYPHIMURIUM, Strain/Indicator: TA100, Metabolic Activation: HAMSTER, LIVER, S-9, AROCLOR 1254 (10%), Method: PREINCUBATION",inactive; negative
same,mutagenic call,[2],inactive; negative
same,mutagenic call,"Test System: AMES SALMONELLA TYPHIMURIUM, Strain/Indicator: TA100, Metabolic Activation: RAT, LIVER, S-9, AROCLOR 1254 (10%), Method: PREINCUBATION",inactive; negative
same,mutagenic call,"Test System: AMES SALMONELLA TYPHIMURIUM, Strain/Indicator: TA1535, Metabolic Activation: HAMSTER, LIVER, S-9, AROCLOR 1254 (10%), Method: PREINCUBATION",inactive; negative
same,mutagenic call,[3],inactive; negative
same,mutagenic call,"Test System: AMES SALMONELLA TYPHIMURIUM, Strain/Indicator: TA1535, Metabolic Activation: RAT, LIVER, S-9, AROCLOR 1254 (10%), Method: PREINCUBATION",inactive; negative
same,mutagenic call,"Test System: AMES SALMONELLA TYPHIMURIUM, Strain/Indicator: TA1537, Metabolic Activation: HAMSTER, LIVER, S-9, AROCLOR 1254 (10%), Method: PREINCUBATION",inactive; negative
same,mutagenic call,[6],inactive; negative
same,mutagenic call,"Test System: AMES SALMONELLA TYPHIMURIUM, Strain/Indicator: TA1537, Metabolic Activation: RAT, LIVER, S-9, AROCLOR 1254 (10%), Method: PREINCUBATION",inactive; negative
CC(Cl)CCCC(Cl)CCCC(Cl)CCCC(Cl)CCCC(Cl)CCCC(Cl)CCCl (stereo not drawn),mutagenic call,"End Point: IN VITRO CHROMOSOMAL ABERRATIONS, Test System: CHO CELLS, Metabolic Activation: NONE",active; positive; oily droplets formed at all doses
same,mutagenic call,"End Point: IN VITRO CHROMOSOMAL ABERRATIONS, Test System: CHO CELLS, Metabolic Activation: RAT, LIVER, S-9, AROCLOR 1254",inactive; negative; oily droplets formed at all doses
same,mutagenic call,"Test System: AMES SALMONELLA TYPHIMURIUM, Strain/Indicator: TA98, Metabolic Activation: HAMSTER, LIVER, S-9, AROCLOR 1254, Method: PREINCUBATION",inactive; negative
same,mutagenic call,[1],inactive; negative
same,mutagenic call,"Test System: AMES SALMONELLA TYPHIMURIUM, Strain/Indicator: TA98, Metabolic Activation: RAT, LIVER, S-9, AROCLOR 1254, Method: PREINCUBATION",inactive; negative
same,mutagenic call,"Test System: AMES SALMONELLA TYPHIMURIUM, Strain/Indicator: TA100, Metabolic Activation: HAMSTER, LIVER, S-9, AROCLOR 1254, Method: PREINCUBATION",inactive; negative
same,mutagenic call,[2],inactive; negative
same,mutagenic call,"Test System: AMES SALMONELLA TYPHIMURIUM, Strain/Indicator: TA100, Metabolic Activation: RAT, LIVER, S-9, AROCLOR 1254, Method: PREINCUBATION",inactive; negative
same,mutagenic call,"Test System: AMES SALMONELLA TYPHIMURIUM, Strain/Indicator: TA1535, Metabolic Activation: HAMSTER, LIVER, S-9, AROCLOR 1254, Method: PREINCUBATION",inactive; negative
same,mutagenic call,[3],inactive; negative
same,mutagenic call,"Test System: AMES SALMONELLA TYPHIMURIUM, Strain/Indicator: TA1535, Metabolic Activation: RAT, LIVER, S-9, AROCLOR 1254, Method: PREINCUBATION",inactive; negative
same,mutagenic call,"Test System: AMES SALMONELLA TYPHIMURIUM, Strain/Indicator: TA1537, Metabolic Activation: HAMSTER, LIVER, S-9, AROCLOR 1254, Method: PREINCUBATION",inactive; negative
same,mutagenic call,[6],inactive; negative
same,mutagenic call,"Test System: AMES SALMONELLA TYPHIMURIUM, Strain/Indicator: TA1537, Metabolic Activation: RAT, LIVER, S-9, AROCLOR 1254, Method: PREINCUBATION",inactive; negative
O=C1CN(/N=C/C=C/c2ccc([N+](=O)[O-])o2)C(=O)N1,mutagenic call,"Test System: AMES SALMONELLA TYPHIMURIUM, Strain/Indicator: TA97, Metabolic Activation: NONE, Method: STANDARD PLATE",active; positive
same,mutagenic call,[4],active; positive
same,mutagenic call,[5],active; positive
same,mutagenic call,"Test System: E. COLI WP2, Strain/Indicator: WP2, Metabolic Activation: NONE, Method: SPOT",active; positive
Cc1c[nH]c(=O)[nH]c1=O,mutagenic call,"Test System: CHINESE HAMSTER V-79, Strain/Indicator: V-79 (HPRT)/6-THIOGUANINE, Metabolic Activation: NONE, Method: STANDARD PLATE",inactive; negative
